According to PubChem BioAssay AID248 (DTP/NCI, 2004):
Inconclusive results and toxic doses are left out. No stated cut-off is given here; in the data, active means T/C of 150% or more; inactive means T/C below 125%.

Tested on: L1210 leukemia ip in BDF1 mice, survival T/C
Test: NCI In Vivo Anticancer Drug Screen. Data for tumor model L1210 Leukemia (intraperitoneal) in B6D2F1 (BDF1) mice
Conditions: endpoint: mean survival time, higher = longer survival
How it was run: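 Survival endpoint. Drug-treated group vs vehicle group, expressed as T divided by C. Tumor passaged by transplantation.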

[1] = dose: 100.0 mg/kg/injection, schedule: Q01DX009 (ip), vehicle: Klucel (hydroxypropylcellulose) (HPC)
[2] = dose: 100.0 mg/kg/injection, schedule: Q04DX003 (ip), vehicle: Klucel (hydroxypropylcellulose) (HPC)
[3] = dose: 200.0 mg/kg/injection, schedule: Q01DX009 (ip), vehicle: Klucel (hydroxypropylcellulose) (HPC)
[4] = dose: 200.0 mg/kg/injection, schedule: Q04DX003 (ip), vehicle: Klucel (hydroxypropylcellulose) (HPC)
[5] = dose: 400.0 mg/kg/injection, schedule: Q04DX003 (ip), vehicle: Klucel (hydroxypropylcellulose) (HPC)
[6] = dose: 100.0 mg/kg/injection, schedule: Q04DX003 (ip), vehicle: saline
[7] = dose: 200.0 mg/kg/injection, schedule: Q04DX003 (ip), vehicle: saline
[8] = dose: 400.0 mg/kg/injection, schedule: Q04DX003 (ip), vehicle: saline
[9] = dose: 100.0 mg/kg/injection, schedule: Q01DX001 (ip), vehicle: carboxymethylcellulose (CMC)
[10] = dose: 200.0 mg/kg/injection, schedule: Q01DX001 (ip), vehicle: carboxymethylcellulose (CMC)
[11] = dose: 400.0 mg/kg/injection, schedule: Q01DX001 (ip), vehicle: carboxymethylcellulose (CMC)
[12] = dose: 50.0 mg/kg/injection, schedule: Q01DX001 (ip), vehicle: saline
[13] = dose: 100.0 mg/kg/injection, schedule: Q01DX001 (ip), vehicle: saline
[14] = dose: 200.0 mg/kg/injection, schedule: Q01DX001 (ip), vehicle: saline
[15] = dose: 400.0 mg/kg/injection, schedule: Q01DX001 (ip), vehicle: saline

Measured: T/C

CCCCCCCS(=O)(=O)c1nc2ccccc2[nH]1
inactive: dose: 100.0 mg/kg/injection, schedule: Q04DX002 (ip), vehicle: Klucel (hydroxypropylcellulose) (HPC) 95 % of control | dose: 200.0 mg/kg/injection, schedule: Q04DX002 (ip), vehicle: Klucel (hydroxypropylcellulose) (HPC) 101 % of control | dose: 400.0 mg/kg/injection, schedule: Q04DX002 (ip), vehicle: Klucel (hydroxypropylcellulose) (HPC) 104 % of control

COc1ccc(C(=O)/C=C/c2ccc3c(c2)OCO3)cc1OC
inactive: [1] 87 % of control | [2] 98 % of control | [3] 90 % of control | [4] 98 % of control | dose: 400.0 mg/kg/injection, schedule: Q01DX009 (ip), vehicle: Klucel (hydroxypropylcellulose) (HPC) 90 % of control | [5] 96 % of control

CN(C)CC(Cl)CCl (stereo not given)
inactive: [6] 98 % of control | [7] 107 % of control | [8] 115 % of control

CCCCCC[P+](=O)CCCCCC
inactive: dose: 100.0 mg/kg/injection, schedule: Q04DX002 (ip), vehicle: gum acacia 97 % of control | dose: 200.0 mg/kg/injection, schedule: Q04DX002 (ip), vehicle: gum acacia 103 % of control

COC1=C(Nc2ccccc2C)C(=O)C(OC)=C(Nc2ccccc2C)C1=O
inactive: dose: 50.0 mg/kg/injection, schedule: Q01DX001 (ip), vehicle: carboxymethylcellulose (CMC) 87 % of control | [9] 96 % of control | [10] 98 % of control | [11] 96 % of control

CNC(=O)N(C)C1C(OC)OC2COC(c3ccccc3)OC2C1O (stereo not given)
inactive: dose: 25.0 mg/kg/injection, schedule: Q01DX009 (ip), vehicle: saline 100 % of control | dose: 50.0 mg/kg/injection, schedule: Q01DX009 (ip), vehicle: saline 105 % of control | dose: 100.0 mg/kg/injection, schedule: Q01DX009 (ip), vehicle: saline 100 % of control | dose: 200.0 mg/kg/injection, schedule: Q01DX009 (ip), vehicle: saline 100 % of control

BrCCCc1ccccc1
inactive: dose: 75.0 mg/kg/injection, schedule: Q01DX001 (ip), vehicle: saline 95 % of control | dose: 150.0 mg/kg/injection, schedule: Q01DX001 (ip), vehicle: saline 97 % of control

ClCCN(CCCl)c1ccc(-c2csc(Cc3ccccc3)n2)cc1
inactive: [9] 93 % of control | [10] 92 % of control | [11] 93 % of control

Cc1cc(NC(=O)Nc2cc(Cl)ccc2C)no1
inactive: dose: 12.5 mg/kg/injection, schedule: Q01DX009 (ip), vehicle: Klucel (hydroxypropylcellulose) (HPC) 95 % of control | dose: 25.0 mg/kg/injection, schedule: Q01DX009 (ip), vehicle: Klucel (hydroxypropylcellulose) (HPC) 106 % of control | dose: 50.0 mg/kg/injection, schedule: Q01DX009 (ip), vehicle: Klucel (hydroxypropylcellulose) (HPC) 98 % of control

CN(C)C(=O)N1CN(c2ccccc2)C2(CCN(CC3COc4ccccc4O3)CC2)C1=O (stereo not given)
inactive: dose: 100.0 mg/kg/injection, schedule: Q01DX001 (ip), vehicle: Klucel (hydroxypropylcellulose) (HPC) 101 % of control | dose: 200.0 mg/kg/injection, schedule: Q01DX001 (ip), vehicle: Klucel (hydroxypropylcellulose) (HPC) 97 % of control | dose: 400.0 mg/kg/injection, schedule: Q01DX001 (ip), vehicle: Klucel (hydroxypropylcellulose) (HPC) 106 % of control

c1ccc(-c2csc(NNc3nc(-c4ccccc4)cs3)n2)cc1
inactive: [2] 95 % of control | [4] 90 % of control | [5] 112 % of control

CC(=O)OC1CCCCC1c1cccc(C)c1 (stereo not given)
inactive: dose: 100.0 mg/kg/injection, schedule: Q04DX003 (ip), vehicle: acetone 110 % of control | dose: 200.0 mg/kg/injection, schedule: Q04DX003 (ip), vehicle: acetone 102 % of control | dose: 400.0 mg/kg/injection, schedule: Q04DX003 (ip), vehicle: acetone 98 % of control

Cn1nc(C(N)=O)c(C#N)c1N
inactive: dose: 50.0 mg/kg/injection, schedule: Q04DX002 (ip), vehicle: saline 103 % of control | dose: 100.0 mg/kg/injection, schedule: Q04DX002 (ip), vehicle: saline 92 % of control | dose: 200.0 mg/kg/injection, schedule: Q04DX002 (ip), vehicle: saline 95 % of control

Cc1ccc(CNc2ccc(Cl)cc2)cc1
inactive: [1] 95 % of control | [2] 96 % of control | [3] 104 % of control | [4] 98 % of control | [5] 96 % of control

COc1cc2nccc3c4ccccc4n(c1=O)c23
inactive: [12] 97 % of control | [13] 101 % of control | [14] 101 % of control | [15] 97 % of control

O=[N+]([O-])C(CO)(CO)CO
inactive: [6] 104 % of control | [7] 101 % of control | [8] 101 % of control

CCCCCCCCCCCCCCCC(=O)OC(C)COC (stereo not given)
inactive: dose: 50.0 mg/kg/injection, schedule: Q01DX009 (ip), vehicle: saline with Tween-80 108 % of control | dose: 100.0 mg/kg/injection, schedule: Q01DX001 (ip), vehicle: other 102 % of control | dose: 100.0 mg/kg/injection, schedule: Q01DX009 (ip), vehicle: saline with Tween-80 98 % of control | dose: 100.0 mg/kg/injection, schedule: Q04DX003 (ip), vehicle: other 111 % of control | dose: 200.0 mg/kg/injection, schedule: Q01DX001 (ip), vehicle: other 94 % of control | dose: 200.0 mg/kg/injection, schedule: Q01DX009 (ip), vehicle: saline with Tween-80 98 % of control | dose: 200.0 mg/kg/injection, schedule: Q04DX003 (ip), vehicle: other 107 % of control | dose: 400.0 mg/kg/injection, schedule: Q01DX001 (ip), vehicle: other 101 % of control | dose: 400.0 mg/kg/injection, schedule: Q04DX003 (ip), vehicle: other 110 % of control

CN(C)S(=O)(=O)c1ccc(NC(=O)CI)cc1
inactive: dose: 12.0 mg/kg/injection, schedule: Q01DX001 (ip), vehicle: other 95 % of control | dose: 12.5 mg/kg/injection, schedule: Q01DX009 (ip), vehicle: saline with Tween-80 95 % of control | dose: 12.5 mg/kg/injection, schedule: Q04DX003 (ip), vehicle: other 95 % of control | dose: 25.0 mg/kg/injection, schedule: Q01DX001 (ip), vehicle: other 105 % of control | dose: 25.0 mg/kg/injection, schedule: Q01DX009 (ip), vehicle: saline with Tween-80 106 % of control | dose: 25.0 mg/kg/injection, schedule: Q04DX003 (ip), vehicle: other 101 % of control | dose: 50.0 mg/kg/injection, schedule: Q01DX001 (ip), vehicle: other 100 % of control | dose: 50.0 mg/kg/injection, schedule: Q04DX003 (ip), vehicle: other 96 % of control

O=C(CC(c1ccccc1)N1CCCCC1)c1ccccc1 (stereo not given)
inactive: [12] 97 % of control | [13] 100 % of control | [14] 94 % of control | [15] 97 % of control
